This note sets out measurements from US10040791B2, “Isoxazole derivative as mutant isocitrate dehydrogenase 1 inhibitor” (Daiichi Sankyo Company, Limited, priority 2014, dated 2018).

The term IC50 denotes the concentration that gives 50% inhibition.

Read-outs that look alike come from different tables or passages of the source.

The target in one assay is IDH1R132C (Homo sapiens (Human), UniProt O75874, R132C). The assay is described as follows: Inhibitory activity against IDH1R132C enzyme (NADPH detection, WST-8). It counts as biochemical. The settings on record: 10 nM, residual NADPH detected with WST-8, read-out: Test Example 1 IDH1 R132C IC50. A general note: Tetrazolium assays rely on reduction of a dye to a coloured formazan, in cell work by metabolically active cells.
Sequence of IDH1R132C (O75874 whole entry R132C): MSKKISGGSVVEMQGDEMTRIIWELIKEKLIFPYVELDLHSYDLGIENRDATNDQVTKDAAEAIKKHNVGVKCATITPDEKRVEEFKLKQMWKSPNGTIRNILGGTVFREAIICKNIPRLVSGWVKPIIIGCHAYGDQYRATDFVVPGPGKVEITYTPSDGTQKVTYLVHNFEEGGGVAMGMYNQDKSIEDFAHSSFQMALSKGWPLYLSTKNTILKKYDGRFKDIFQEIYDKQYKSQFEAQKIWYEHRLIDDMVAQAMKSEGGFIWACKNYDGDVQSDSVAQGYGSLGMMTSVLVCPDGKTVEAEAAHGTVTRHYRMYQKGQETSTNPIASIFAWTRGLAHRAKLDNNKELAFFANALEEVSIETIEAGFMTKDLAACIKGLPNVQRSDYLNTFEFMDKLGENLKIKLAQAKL

The subject of assay [1] is HT-1080 cells expressing IDH1R132C. The assay can be described thus: 2-HG production inhibitory activity using HT1080 cell. It counts as cell-based, human. The settings on record: 2-HG production, HT1080 cells, read-out: Test Example 3 IC50. The protocol:
Then, 100 μL of growth medium B was added to each well, further 25 μL of a solution of each compound diluted to a predetermined concentration with growth medium B was added to each well, and the cells were incubated at 37° C. for 2 days under 5% CO2. […] Then, 150 μL of ultrapure water was further added to each well, and the mixture was stirred by pipetting and stored at −20° C.
The preserved solutions were thawed at room temperature.

For assay [2], the system named is HT1080 xenografted mice (IDH1R132C). The assay is described as follows: 2-HG production inhibitory activity using HT1080 xenografted mice. Conditions: 2-HG production, HT1080 xenografted mice; for response vs control in vivo at 75 mg/kg: Mus musculus, HT-1080, po, 6 h, read-out: Test Example 5 Ratio (%). Type of assay: in vivo, mouse. The method in brief: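 Mice bearing HT1080 tumors received 75 mg/kg compound by oral gavage twice a day, three doses in total, at 10 mL/kg; vehicle-dosed mice were negative controls. Tumors were collected 6 h after the final dose, frozen, homogenized in methanol and centrifuged, and 2-HG was measured in the extracts.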

Take `Cc1cn(C(=O)c2c(-c3cc(F)c(Cl)cc3Cl)noc2C(C)(C)F)c2cccc(/C=C/C(=O)O)c12` [Example 63, (2E)-3-(1-{[3-(2,4-Dichloro-5-fluorophenyl)-5-(2-fluoropropan-2-yl)-1,2-oxazol-4-yl]carbonyl}-3-methyl-1H-indol-4-yl)prop-2-enoic acid]: the IC50 worked out at 0.145 µM on IDH1R132C and 0.193 µM in assay [1] (Homo sapiens, HT-1080). In addition, the response vs control in vivo at 75 mg/kg in assay [2] worked out at 31%.
In the same order, the values of `COC1(c2onc(-c3c(Cl)cc(Cl)cc3Cl)c2C(=O)n2cc(C)c3c(/C=C/C(=O)O)cccc32)CCC1` [Example 79, (2E)-3-(1-{[5-(1-Methoxycyclobutyl)-3-(2,4,6-trichlorophenyl)-1,2-oxazol-4-yl]carbonyl}-3-methyl-1H-indol-4-yl)prop-2-enoic acid] are 0.161 µM, 0.035 µM and 15%.
Regarding `CC(C)(C)c1onc(-c2c(Cl)cc(Cl)cc2Cl)c1C(=O)n1ccc2c(/C=C/C(=O)O)ccc(F)c21` [Example 48], the results for the IC50 (at IDH1R132C; in assay [1]) were 0.193 µM and 0.115 µM, respectively. In addition, the “Test Example 5 Ratio (%)” value in assay [2] worked out at 72%.
Consider `CC1(c2onc(-c3c(Cl)cc(Cl)cc3Cl)c2C(=O)n2cc3c4c(cccc42)/C(=C/C(=O)O)CC3)CC(F)(F)C1` [Example 19], for which the 50% inhibitory concentration (IC50) on IDH1R132C turned out to be 0.169 µM; in assay [1] (Homo sapiens, HT-1080) it was 0.064 µM. In addition, the response vs control in vivo at 75 mg/kg in assay [2] stood at 79%.
Regarding `C=CC(=O)N1CC2(CC2)N(c2onc(-c3c(Cl)cccc3OC)c2C(=O)n2ccc3c(/C=C/C(=O)O)cccc32)C[C@H]1C` [Example 158, (2E)-3-[1-({5-[(6R)7-Acryloyl-6-methyl-4,7-diazaspiro[2.5]oct-4-yl]-3-(2-chloro-6-methoxyphenyl)-1,2-oxazol-4-yl}carbonyl)-1H-indol-4-yl]prop-2-enoic acid], the half-maximal inhibitory concentration (IC50) stood at 0.179 µM at IDH1R132C and 0.178 µM in assay [1] (Homo sapiens, HT-1080). Also, in assay [2], the response vs control in vivo at 75 mg/kg is 62%.
In the same order, the values of `COC1(c2onc(-c3c(Cl)cc(Cl)cc3Cl)c2C(=O)n2ccc3c(/C=C/C(=O)O)cccc32)CC1` [Example 44, (2E)-3-(1-{[5-(1-Methoxycyclopropyl)-3-(2,4,6-trichlorophenyl)-1,2-oxazol-4-yl]carbonyl}-1H-indol-4-yl)prop-2-enoic acid] are 0.189 µM, 0.194 µM and 72%.
In the same order, the values of `CC(C)(F)c1onc(-c2ccc(Cl)cc2Cl)c1C(=O)n1cc2c3c(cccc31)/C(=C/C(=O)O)CC2` [Example 69, (2E)-[1-{[3-(2,4-Dichlorophenyl)-5-(2-fluoropropan-2-yl)-1,2-oxazol-4-yl]carbonyl}-3,4-dihydrobenzo[cd]indol-5(1H)-ylidene]ethanoic acid] are 0.168 µM, 0.197 µM and 20%.
In the same order, the values of `C=CC(=O)N1CCC(c2onc(-c3ccc(Cl)c(F)c3Cl)c2C(=O)n2cc3c4c(cccc42)/C(=C/C(=O)O)CC3)CC1` [Example 130, (2E)-[1-{[5-(1-Acryloylpiperidin-4-yl)-3-(2,4-dichloro-3-fluorophenyl)-1,2-oxazol-4-yl]carbonyl}-3,4-dihydrobenzo[cd]indol-5(1H)-ylidene]ethanoic acid] are 0.143 µM, 0.014 µM and 5%.
Regarding `COCC(C)(C)c1onc(-c2c(Cl)cc(Cl)cc2Cl)c1C(=O)n1ccc2c(/C=C/C(=O)O)cccc21` [Example 42, (2E)-3-(1-{[5-(1-Methoxy-2-methylpropan-2-yl)-3-(2,4,6-trichlorophenyl)-1,2-oxazol-4-yl]carbonyl}-1H-indol-4-yl)prop-2-enoic acid], the 50% inhibitory concentration (IC50) at IDH1R132C was 0.217 µM; in assay [1] (Homo sapiens, HT-1080), 0.178 µM. The response vs control in vivo at 75 mg/kg in assay [2] stood at 84%.
In the same order, the values of `C=CC(=O)N1CCC(c2onc(-c3ccc(Cl)cc3Cl)c2C(=O)n2cc(C)c3c(/C=C/C(=O)O)cccc32)CC1` [Example 106] are 0.149 µM, 0.023 µM and 12%.
Turning to `C=CC(=O)N1CCC(c2onc(-c3c(C)cc(Cl)cc3C)c2C(=O)n2ccc3c(/C=C/C(=O)O)cccc32)CC1` [Example 110], the IC50 on IDH1R132C was 0.316 µM; in assay [1] (Homo sapiens, HT-1080), 0.048 µM. In addition, in assay [2], the response vs control in vivo at 75 mg/kg is 52%.
In the same order, the values of `C=CC(=O)N1CCC(c2onc(-c3c(Cl)cc(Cl)cc3Cl)c2C(=O)n2ccc3c(/C=C(\C)C(=O)O)cccc32)CC1` [Example 116] are 0.471 µM, 0.042 µM and 57%.
For the compound `C=CC(=O)N1C[C@@H](C)N(c2onc(-c3c(Cl)cc(Cl)cc3Cl)c2C(=O)n2ccc3c(/C=C/C(=O)O)cccc32)[C@@H](C)C1` [Example 151, (2E)-3-(1-{[5-(4-Acryloyl-cis-2,6-dimethylpiperazin-1-yl)-3-(2,4,6-trichlorophenyl)-1,2-oxazol-4-yl]carbonyl}-1H-indol-4-yl)prop-2-enoic acid], the IC50 on IDH1R132C was 0.168 µM; in assay [1] (Homo sapiens, HT-1080), 0.041 µM. The response vs control in vivo at 75 mg/kg in assay [2] is 60%.
In the same order, the values of `Cc1cc(Cl)cc(Cl)c1-c1noc(C(C)(C)F)c1C(=O)n1cc(C)c2c(/C=C/C(=O)O)cccc21` [Example 59, (2E)-3-(1-{[3-(2,4-Dichloro-6-methylphenyl)-5-(2-fluoropropan-2-yl)-1,2-oxazol-4-yl]carbonyl}-3-methyl-1H-indol-4-yl)prop-2-enoic acid] are 0.117 µM, 0.056 µM and 10%.
In the same order, the values of `C=CC(=O)N1CCN(c2onc(-c3c(Cl)cccc3Cl)c2C(=O)n2ccc3c(/C=C/C(=O)O)cccc32)[C@H](C)C1` [Example 141, (2E)-3-[1-({5-[(2R)-4-Acryloyl-2-methylpiperazin-1-yl]-3-(2,6-dichlorophenyl)-1,2-oxazol-4-yl}carbonyl)-1H-indol-4-yl]prop-2-enoic acid] are 0.137 µM, 0.19 µM and 36%.
In the same order, the values of `CC(C)(F)c1onc(-c2c(F)cc(Cl)cc2Cl)c1C(=O)n1ccc2c(/C=C/C(=O)O)cccc21` [Example 46, (2E)-3-(1-{[3-(2,4-Dichloro-6-fluorophenyl)-5-(2-fluoropropan-2-yl)-1,2-oxazol-4-yl]carbonyl}-1H-indol-4-yl)prop-2-enoic acid] are 0.197 µM, 0.459 µM and 69%.
For the compound `C=CC(=O)N1CCC(c2onc(-c3c(Cl)cc(Cl)cc3Cl)c2C(=O)n2cc(C)c3c(/C=C/C(=O)O)cccc32)CC1` [Example 104], the 50% inhibitory concentration (IC50) at IDH1R132C was 0.093 µM; in assay [1] (Homo sapiens, HT-1080), 0.007 µM. Moreover, in assay [2], the response vs control in vivo at 75 mg/kg was determined as 8%.
In the same order, the values of `Cc1cn(C(=O)c2c(-c3c(Cl)cc(C4CC4)cc3Cl)noc2C(C)(C)F)c2cccc(/C=C/C(=O)O)c12` [Example 70, (2E)-3-(1-{[3-(2,6-Dichloro-4-cyclopropylphenyl)-5-(2-fluoropropan-2-yl)-1,2-oxazol-4-yl]carbonyl}-3-methyl-1H-indol-4-yl)prop-2-enoic acid] are 0.153 µM, 0.071 µM and 41%.
With `Cc1cn(C(=O)c2c(-c3c(Cl)cc(Cl)cc3Cl)noc2C(C)C)c2cccc(/C=C/C(=O)O)c12` [Example 29, (2E)-3-(1-{[5-(Propan-2-yl)-3-(2,4,6-trichlorophenyl)-1,2-oxazol-4-yl]carbonyl}-3-methyl-1H-indol-4-yl)prop-2-enoic acid], the IC50 was found to be 0.102 µM at IDH1R132C and 0.094 µM in assay [1] (Homo sapiens, HT-1080). Moreover, in assay [2], the response vs control in vivo at 75 mg/kg came out at 39%.
As to `Cc1cc(Cl)c(-c2noc(C(C)(C)F)c2C(=O)n2cc(C)c3c(/C=C/C(=O)O)cccc32)c(Cl)c1` [Example 56, (2E)-3-(1-{[3-(2,6-Dichloro-4-methylphenyl)-5-(2-fluoropropan-2-yl)-1,2-oxazol-4-yl]carbonyl}-3-methyl-1H-indol-4-yl)prop-2-enoic acid], the IC50 on IDH1R132C was found to be 0.107 µM; in assay [1] (Homo sapiens, HT-1080), 0.052 µM. The response vs control in vivo at 75 mg/kg in assay [2] worked out at 28%.
As for `Cc1cn(C(=O)c2c(-c3c(Cl)cc(Cl)cc3Cl)noc2C2(C)COC2)c2cccc(/C=C/C(=O)O)c12` [Example 2, (2E)-3-(3-Methyl-1-{[5-(3-methyloxetan-3-yl)-3-(2,4,6-trichlorophenyl)-1,2-oxazol-4-yl]carbonyl}-1H-indol-4-yl)prop-2-enoic acid], the concentration for half-maximal inhibition (IC50) was determined as 0.047 µM on IDH1R132C and 0.018 µM in assay [1] (Homo sapiens, HT-1080). In assay [2], the response vs control in vivo at 75 mg/kg is 18%.
In the same order, the values of `C=CC(=O)N1CCN(c2onc(-c3c(Cl)cccc3Cl)c2C(=O)n2ccc3c(/C=C/C(=O)O)cccc32)C2(CC2)C1` [Example 147, (2E)-3-(1-{[5-[7-Acryloyl-4,7-diazaspiro[2.5]oct-4-yl]-3-(2,6-dichlorophenyl)-1,2-oxazol-4-yl]carbonyl}-1H-indol-4-yl)prop-2-enoic acid] are 0.078 µM, 0.219 µM and 18%.
In the same order, the values of `C#CC(=O)N1CCC(c2onc(-c3c(Cl)cc(Cl)cc3Cl)c2C(=O)n2ccc3c(/C=C/C(=O)O)cccc32)CC1` [Example 100] are 0.189 µM, 0.028 µM and 75%.
